The values that follow come from patent publication US20260083851A1 (AVILAR THERAPEUTICS, INC., priority 2022, published 2026).

Read-outs that look alike come from different tables or passages of the source.

The target of the test is T1, ASGP receptor (biotinylated ASGPR) (Homo sapiens, UniProt P07306).
T1 construct: biotin (biotinylated)
T1 sequence (P07306 1-291): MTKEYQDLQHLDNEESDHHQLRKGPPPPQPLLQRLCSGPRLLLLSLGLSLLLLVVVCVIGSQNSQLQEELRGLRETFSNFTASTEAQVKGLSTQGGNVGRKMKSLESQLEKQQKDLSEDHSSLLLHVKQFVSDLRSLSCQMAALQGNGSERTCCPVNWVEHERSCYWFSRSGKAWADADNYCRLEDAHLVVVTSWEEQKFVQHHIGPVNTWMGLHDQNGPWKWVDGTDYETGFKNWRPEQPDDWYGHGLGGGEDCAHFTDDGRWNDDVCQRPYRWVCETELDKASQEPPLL
Format: binding. As to conditions: SPR, Biacore 8K, 25° C., read-out: ASGPR KD.

For the compound `O[C@@H]1[C@H](O)[C@@H](Oc2cccc(C(F)(F)F)n2)CO[C@@H]1CSc1ccccc1` [A304], the Kd – broadly, the free concentration of one partner at which half of the binding sites on the other are occupied at equilibrium, for simple one-to-one binding – (Table 1C) is less than 10 µM.
On to `C[C@H]1O[C@H](COc2cnccn2)[C@H](Oc2cncc(C(F)(F)F)n2)[C@@H](O)[C@H]1O` [A434], for which the Kd (Table 1E) is less than 10 µM.
Turning to `O[C@@H]1[C@H](O)[C@@H](Nc2cncc(C(F)(F)F)n2)CO[C@@H]1COc1cccnn1` [A212, (2R,3R,4R,5S)-2-((pyridazin-3-yloxy)methyl)-5-((6-(trifluoromethyl)pyrazin-2-yl)amino)tetrahydro-2H-pyran-3,4-diol], the Kd (Table 1C) was less than 10 µM.
Take `O=C(OCc1ccccc1)N1C[C@H](O)[C@H](O)[C@@H](S(=O)(=O)c2cccc(C(F)(F)F)n2)C1` [A356]: the Kd (Table 1D, numeric bound) is greater than 30 µM.
On to `O[C@@H]1[C@@H](Oc2cccc(C(F)(F)F)n2)CN(c2ncon2)C[C@@H]1O` [A359], for which the Kd (Table 1D) is less than 10 µM.
Take `CC(=O)N[C@@H]1[C@@H](O)[C@@H](O)[C@@H](CO)O[C@@H]1c1ccccc1` [A95, N-((2R,3R,4R,5R,6R)-4,5-dihydroxy-6-(hydroxymethyl)-2-phenyltetrahydro-2H-pyran-3-yl)acetamide]: the Kd (Table 1A) is less than 10 µM.
Turning to `O=C(O)c1ccc(-c2ccc(OC[C@H]3OC[C@H](Nc4cccc(C(F)(F)F)n4)[C@@H](O)[C@H]3O)cc2)cc1` [A225, 4′-(((2R,3R,4R,5S)-3,4-dihydroxy-5-((6-(trifluoromethyl)pyridin-2-yl)amino)tetrahydro-2H-pyran-2-yl)methoxy)-[1,1′-biphenyl]-4-carboxylic acid], for the setting “Table 1C”, the Kd is less than 10 µM.
As to `O[C@@H]1[C@@H](Nc2nccc(C(F)(F)F)n2)CNC[C@@H]1O` [A370], the Kd (Table 1D) is 10 to 100 µM.
On to `O=C(NC[C@H]1OC[C@H](Nc2cncc(C(F)(F)F)n2)[C@@H](O)[C@H]1O)c1ncccn1` [A4, N-(((2R,3R,4R,5S)-3,4-dihydroxy-5-((6-(trifluoromethyl)pyrazin-2-yl)amino)tetrahydro-2H-pyran-2-yl)methyl)pyrimidine-2-carboxamide], for which the Kd (Table 1A) was less than 10 µM.
As for `O[C@@H]1[C@H](O)[C@@H](Nc2cncc(C(F)(F)F)n2)CO[C@@H]1COc1cnc(C2CCNCC2)cn1` [A415], the Kd (Table 1D) is less than 10 µM.
As to `O=C(O)c1cnc(OC[C@H]2OC[C@H](Oc3cccc(C(F)(F)F)n3)[C@@H](O)[C@H]2O)cn1` [A244], the Kd (Table 1C) was less than 10 µM.
On to `O=C(O)c1cnc(OC[C@H]2OC[C@H](Nc3cccc(C(F)(F)F)n3)[C@@H](O)[C@H]2O)cn1` [A309], for which the Kd (Table 1C) is less than 10 µM.
Consider `O[C@@H]1[C@H](O)[C@@H](Oc2cccc(C(F)(F)F)n2)CO[C@@H]1COc1cccnn1` [A216, (2R,3R,4S,5S)-2-((pyridazin-3-yloxy)methyl)-5-((6-(trifluoromethyl)pyridin-2-yl)oxy)tetrahydro-2H-pyran-3,4-diol], for which the Kd (Table 1C) is less than 10 µM.
On to `OC[C@H]1CC[C@H](Nc2nccc(C(F)(F)F)n2)[C@@H](O)[C@H]1O` [A54, (1R,2S,3R,6S)-3-(hydroxymethyl)-6-((4-(trifluoromethyl)pyrimidin-2-yl)amino)cyclohexane-1,2-diol], for which the Kd (Table 1A) fell in the range of 10 to 100 µM.
In the case of `O=C(NC[C@H]1OC[C@H](Nc2cncc(C(F)(F)F)n2)[C@@H](O)[C@H]1O)c1ncc2ccccc2n1` [A81, N-(((2R,3R,4R,5S)-3,4-dihydroxy-5-((6-(trifluoromethyl)pyrazin-2-yl)amino)tetrahydro-2H-pyran-2-yl)methyl)quinazoline-2-carboxamide], the Kd (Table 1A) was less than 10 µM.
Same read-out and setting: the result for `O[C@@H]1[C@H](O)[C@@H](Nc2cncc(C(F)(F)F)n2)CO[C@@H]1CN1CCCCCC1` [A70, (2R,3R,4R,5S)-2-(azepan-1-ylmethyl)-5-((6-(trifluoromethyl)pyrazin-2-yl)amino)tetrahydro-2H-pyran-3,4-diol] reads less than 10 µM.
Turning to `C[C@H]1O[C@H](C(=O)Nc2cn[nH]c2)[C@H](Nc2cccc(C(F)(F)F)n2)[C@@H](O)[C@H]1O` [A424], where the note is “Table 1D”, the Kd is less than 10 µM.
As to `O=C(NC[C@H]1OC[C@H](Nc2cncc(C(F)(F)F)n2)[C@@H](O)[C@H]1O)c1ncco1` [A50], the Kd (Table 1A) is less than 10 µM.
